From PubChem BioAssay AID256 (DTP/NCI, 2004)
Toxic doses and inconclusive results are not listed. Non-standard residues stand in square brackets, D forms with d. Residues, ends and D or L forms follow the SMILES beside them. ξ: configuration not given here. *: point of attachment. ξW = NC(Cc1c[nH]c2ccccc12)C(=O)O; Cbz = O=C(OCc1ccccc1)*

Test system: CD2F1 mice, L1210 leukemia ip, survival T/C
Assay: NCI In Vivo Anticancer Drug Screen. Data for tumor model L1210 Leukemia (intraperitoneal) in CD2F1 (CDF1) mice
Conditions: higher = longer survival
In short: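 Ratio T/C, where T is the treated-group value and C the vehicle-dosed control value, from mice implanted with a transplantable tumor.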

[1] = endpoint: mean survival time, dose: 50.0 mg/kg/injection, schedule: Q01DX009 (ip), vehicle: saline with Tween-80
[2] = endpoint: mean survival time, dose: 100.0 mg/kg/injection, schedule: Q01DX009 (ip), vehicle: saline with Tween-80
[3] = endpoint: mean survival time, dose: 200.0 mg/kg/injection, schedule: Q01DX009 (ip), vehicle: saline with Tween-80
[4] = endpoint: mean survival time, dose: 100.0 mg/kg/injection, schedule: Q01DX001 (ip), vehicle: saline with Tween-80
[5] = endpoint: mean survival time, dose: 200.0 mg/kg/injection, schedule: Q01DX001 (ip), vehicle: saline with Tween-80
[6] = endpoint: mean survival time, dose: 400.0 mg/kg/injection, schedule: Q01DX001 (ip), vehicle: saline with Tween-80
[7] = endpoint: mean survival time, dose: 100.0 mg/kg/injection, schedule: Q04DX003 (ip), vehicle: saline with Tween-80
[8] = endpoint: mean survival time, dose: 200.0 mg/kg/injection, schedule: Q04DX003 (ip), vehicle: saline with Tween-80
[9] = endpoint: mean survival time, dose: 400.0 mg/kg/injection, schedule: Q01DX009 (ip), vehicle: saline with Tween-80
[10] = endpoint: mean survival time, dose: 400.0 mg/kg/injection, schedule: Q04DX003 (ip), vehicle: saline with Tween-80

In the case of C=CCOCC(COCC=C)OC1CCS(=O)(=O)C1 (centres undefined), the T/C [1] is reported as 101 % of control, the T/C [2] is reported as 97 % of control and the T/C [3] is reported as 93 % of control.

CCOC(=O)c1ccc(NC(=O)C(Br)C(Br)C(=O)O)cc1 (centres undefined) was tested, and the T/C [4] was 110 % of control, the T/C [5] was 110 % of control and the T/C [6] was 108 % of control.

With CSc1nc(Cl)c2cc(Cl)[nH]c2n1 the T/C (endpoint: median survival time, dose: 1.5 mg/kg/injection, schedule: Q01DX009 (ip), vehicle: saline with Tween-80) was 104 % of control, the T/C (endpoint: median survival time, dose: 3.0 mg/kg/injection, schedule: Q01DX009 (ip), vehicle: saline with Tween-80) was 107 % of control and the T/C (endpoint: median survival time, dose: 6.0 mg/kg/injection, schedule: Q01DX009 (ip), vehicle: saline with Tween-80) was 110 % of control. For the same compound, the T/C (endpoint: median survival time, dose: 50.0 mg/kg/injection, schedule: Q01DX005 (ip), vehicle: saline with Tween-80) was 100 % of control and the T/C (endpoint: median survival time, dose: 100.0 mg/kg/injection, schedule: Q01DX005 (ip), vehicle: saline with Tween-80) was 101 % of control.

For CCCCN1C(=O)C=CC1=O, the T/C (endpoint: mean survival time, dose: 0.78 mg/kg/injection, schedule: Q01DX009 (ip), vehicle: saline with Tween-80) was 94 % of control, the T/C (endpoint: mean survival time, dose: 1.56 mg/kg/injection, schedule: Q01DX009 (ip), vehicle: saline with Tween-80) was 105 % of control and the T/C (endpoint: mean survival time, dose: 3.12 mg/kg/injection, schedule: Q01DX009 (ip), vehicle: saline with Tween-80) was 91 % of control.

With N#CCCC(CCC#N)c1ccccc1 the T/C [2] was 107 % of control, the T/C [7] was 106 % of control and the T/C [3] was 103 % of control. For the same compound, the T/C [8] was 93 % of control, the T/C [9] was 105 % of control and the T/C [10] was 104 % of control.

With NC(=O)CNC(=O)C(Cc1c[nH]c2ccccc12)NC(=O)OCc1ccccc1 (centres undefined) (Cbz-[ξW]-Gly-NH2) the T/C (endpoint: mean survival time, dose: 75.0 mg/kg/injection, schedule: Q04DX003 (ip), vehicle: saline) was 93 % of control, the T/C (endpoint: mean survival time, dose: 150.0 mg/kg/injection, schedule: Q04DX003 (ip), vehicle: saline) was 97 % of control and the T/C (endpoint: mean survival time, dose: 300.0 mg/kg/injection, schedule: Q04DX003 (ip), vehicle: saline) was 98 % of control.

In the case of CS(=O)(=O)Nc1ccc(NS(C)(=O)=O)cc1, the T/C [7] is reported as 98 % of control, the T/C [8] is reported as 102 % of control and the T/C [10] is reported as 97 % of control.

In the case of Clc1ccc(CSCc2ccc(Cl)cc2Cl)c(Cl)c1, the T/C [2] is reported as 96 % of control, the T/C [7] is reported as 100 % of control and the T/C [3] is reported as 100 % of control. The T/C [8] was 104 % of control, the T/C [9] was 98 % of control and the T/C [10] was 100 % of control.

For O=C(c1ccccc1)C(Cl)Cl, the T/C (endpoint: mean survival time, dose: 50.0 mg/kg/injection, schedule: Q01DX009 (ip), vehicle: saline) was 95 % of control, the T/C [2] was 108 % of control and the T/C (endpoint: mean survival time, dose: 100.0 mg/kg/injection, schedule: Q01DX009 (ip), vehicle: saline) was 95 % of control. The T/C (endpoint: mean survival time, dose: 200.0 mg/kg/injection, schedule: Q01DX009 (ip), vehicle: saline) was 106 % of control and the T/C [9] was 86 % of control.

In the case of O=C(Nn1c(=O)c(=O)oc2ccccc21)C(F)(F)F, the T/C [7] is reported as 96 % of control and the T/C [8] is reported as 94 % of control.

With CC(C)C(C)/C=C/CC(C)C1CCC2C1(C)CCCC21C2CC3=C(CC(OC(=O)NC(N)=O)CC3)C21 (centres undefined) the T/C [2] was 95 % of control, the T/C [3] was 104 % of control and the T/C [9] was 87 % of control.

With CC(=O)N(O)CCCCCNC(=O)CCC(=O)N(O)CCCCCNC(=O)CCC(=O)N(O)CCCCCN the T/C (endpoint: mean survival time, dose: 125.0 mg/kg/injection, schedule: Q03HX024 (ip), vehicle: water) was 102 % of control, the T/C (endpoint: mean survival time, dose: 188.0 mg/kg/injection, schedule: Q03HX024 (ip), vehicle: water) was 97 % of control and the T/C (endpoint: mean survival time, dose: 280.0 mg/kg/injection, schedule: Q03HX024 (ip), vehicle: water) was 104 % of control.

C=CC[n+]1cc2c3ccccc3c(N)cc2c2ccccc21 was tested, and the T/C (endpoint: mean survival time, dose: 1.56 mg/kg/injection, schedule: Q04DX003 (ip), vehicle: water) was 106 % of control, the T/C (endpoint: mean survival time, dose: 3.13 mg/kg/injection, schedule: Q04DX003 (ip), vehicle: water) was 108 % of control and the T/C (endpoint: mean survival time, dose: 6.25 mg/kg/injection, schedule: Q04DX003 (ip), vehicle: water) was 98 % of control.

With COC(=O)C(Cl)(Cl)c1nc(NC(C)=O)[nH]c(=O)c1Cl the T/C [7] was 95 % of control, the T/C [8] was 98 % of control and the T/C [10] was 91 % of control.

In the case of O=C(Cc1ccccn1)NCC(O)c1ccccc1 (centres undefined), the T/C (endpoint: mean survival time, dose: 100.0 mg/kg/injection, schedule: Q04DX003 (ip), vehicle: saline) is reported as 89 % of control, the T/C (endpoint: mean survival time, dose: 200.0 mg/kg/injection, schedule: Q04DX003 (ip), vehicle: saline) is reported as 102 % of control and the T/C (endpoint: mean survival time, dose: 400.0 mg/kg/injection, schedule: Q04DX003 (ip), vehicle: saline) is reported as 100 % of control.

In the case of NC(=O)/C=C/C(N)=O, the T/C [2] is reported as 98 % of control and the T/C [3] is reported as 98 % of control.

In the case of CC/S(=N\S(=O)(=O)c1ccc(C)cc1)c1ccccc1 (centres undefined), the T/C [7] is reported as 104 % of control, the T/C [8] is reported as 108 % of control and the T/C [10] is reported as 98 % of control.

With O=c1[nH]cc(F)c(=O)n1-c1ccco1 the T/C [7] was 111 % of control and the T/C [8] was 166 % of control.

With CCC1c2ccc3cc(O)ccc3c2CCC1(C)C(=O)OC (centres undefined) the T/C (endpoint: mean survival time, dose: 50.0 mg/kg/injection, schedule: Q01DX001 (ip), vehicle: Klucel (hydroxypropylcellulose) (HPC)) was 96 % of control, the T/C (endpoint: mean survival time, dose: 100.0 mg/kg/injection, schedule: Q01DX001 (ip), vehicle: Klucel (hydroxypropylcellulose) (HPC)) was 96 % of control and the T/C (endpoint: mean survival time, dose: 200.0 mg/kg/injection, schedule: Q01DX001 (ip), vehicle: Klucel (hydroxypropylcellulose) (HPC)) was 104 % of control.

With ClC(Cl)(Cl)c1nc(C(Cl)(Cl)Cl)nc(C(Cl)(Cl)Cl)n1 the T/C (endpoint: mean survival time, dose: 100.0 mg/kg/injection, schedule: Q04DX003 (ip), vehicle: Klucel (hydroxypropylcellulose) (HPC)) was 97 % of control, the T/C (endpoint: mean survival time, dose: 200.0 mg/kg/injection, schedule: Q04DX003 (ip), vehicle: Klucel (hydroxypropylcellulose) (HPC)) was 87 % of control and the T/C (endpoint: mean survival time, dose: 400.0 mg/kg/injection, schedule: Q04DX003 (ip), vehicle: Klucel (hydroxypropylcellulose) (HPC)) was 91 % of control.

In the case of Cc1ccc(S(=O)(=O)NC(Cc2ccccc2)C(=O)CCl)cc1 (centres undefined), the T/C [1] is reported as 92 % of control, the T/C [2] is reported as 96 % of control and the T/C [3] is reported as 90 % of control.

With CCOC(=O)C(N)Cc1ccc(O)cc1 (centres undefined) the T/C (endpoint: mean survival time, dose: 100.0 mg/kg/injection, schedule: Q04DX003 (ip), vehicle: other) was 102 % of control, the T/C (endpoint: mean survival time, dose: 200.0 mg/kg/injection, schedule: Q04DX003 (ip), vehicle: other) was 100 % of control and the T/C (endpoint: mean survival time, dose: 400.0 mg/kg/injection, schedule: Q04DX003 (ip), vehicle: other) was 97 % of control.

With O=C(N/N=C/c1ccc2c(c1)CCC2)c1ccncc1 the T/C [7] was 98 % of control, the T/C [8] was 96 % of control and the T/C [10] was 98 % of control.

O=C(O)C(=O)O was tested, and the T/C (endpoint: mean survival time, dose: 200.0 mg/kg/injection, schedule: Q01DX001 (ip), vehicle: saline) was 92 % of control and the T/C (endpoint: mean survival time, dose: 400.0 mg/kg/injection, schedule: Q01DX001 (ip), vehicle: saline) was 97 % of control.

CC1CC(C)(C)N=C(C2(c3ccccc3)CCC2)O1 (centres undefined) was tested, and the T/C [4] was 101 % of control, the T/C (endpoint: mean survival time, dose: 100.0 mg/kg/injection, schedule: Q04DX002 (ip), vehicle: saline with Tween-80) was 101 % of control and the T/C [5] was 111 % of control. The T/C (endpoint: mean survival time, dose: 200.0 mg/kg/injection, schedule: Q04DX002 (ip), vehicle: saline with Tween-80) was 93 % of control, the T/C [6] was 98 % of control and the T/C (endpoint: mean survival time, dose: 400.0 mg/kg/injection, schedule: Q04DX002 (ip), vehicle: saline with Tween-80) was 93 % of control.
